Values joined by “and” are separate entries in the source; they are usually repeats but may differ in a detail not shown here. Equal entries are not always repeated. Where two headings read alike, the source gives them in different places.
Columns and labels:
Format in all cases: biochemical
p38β = p38β (Homo sapiens, UniProt Q15759); test: p38 kinase inhibition assay, p38β
Description: The compounds to be tested were solubilized in DMSO and diluted into water to the desired concentrations. The p38 kinase was diluted to 10 μg/ml into a buffer containing 20 mM MOPS, pH 7.0, 25 mM beta-glycerol phosphate, 2 mg/ml gelatin, 0.5 mM EGTA, and 4 mM DTT.
The reaction was carried out by mixing 20 μl test compound with 10 μl of a substrate cocktail containing 500 μg/ml peptide substrate and 0.2 mM ATP (+200 μCi/ml gamma-32P-ATP) in a 4×assay buffer. The reaction was initiated by the addition of 10 μl of p38 kinase. Final assay conditions were 25 mM MOPS, pH 7.0, 26.25 mM beta-glycerol phosphate, 80 mM KCl, 22 mM MgCl2, 3 mM MgSO4, 1 mg/ml gelatin, 0.625 mM. […] After a 40 minute incubation at room temperature, the reaction was stopped by the addition of 10 μl per reaction of 0.25 M phosphoric acid.
A portion of the reaction was spotted onto a disk of P81 phosphocellulose paper, the filters were dried for 2 minutes and then washed 4× in 75 mM H3PO4. The filters were rinsed briefly in 95% ethanol, dried, then placed in scintillation vials with liquid scintillation cocktail.
Alternatively, the substrate is previously biotinylated and the resulting reactions are spotted on SAM^2TM streptavidin filter squares (Promega). The filters are washed 4× in 2M NaCl, 4× in 2M NaCl with 1% phosphoric acid, 2× in water, and briefly in 95% ethanol. The filter squares are dried and placed in scintillation vials with liquid scintillation cocktail.
(§1) Counts incorporated are determined on a scintillation counter. Relative enzyme activity is calculated by subtracting background counts (counts measured in the absence of enzyme) from each result, and comparing the resulting counts to those obtained in the absence of inhibitor. IC50 values were determined with curve-fitting plots available with common software packages. Approximate IC50 values were calculated using formula
(§2) where A=fractional activity and i=total inhibitor concentration.
Activity with regard to p38β was also tested for compounds of the invention to determine the influence of the position of the piperidinyl or piperazinyl substituent. The influence of substitution on the benzyl moiety attached to the 4-position of the piperazine or piperidine was also tested.

p38α = p38α (Homo sapiens, UniProt Q16539); test: Assay for p38 kinase inhibition (p38α);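 further: radiometric p38 kinase assay, peptide substrate phosphorylation with γ-32P-ATP, 40 min at room temperature, incorporated counts measured by scintillation, inhibition relative to uninhibited kinase activity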
p38α, sequence (Q16539 whole entry): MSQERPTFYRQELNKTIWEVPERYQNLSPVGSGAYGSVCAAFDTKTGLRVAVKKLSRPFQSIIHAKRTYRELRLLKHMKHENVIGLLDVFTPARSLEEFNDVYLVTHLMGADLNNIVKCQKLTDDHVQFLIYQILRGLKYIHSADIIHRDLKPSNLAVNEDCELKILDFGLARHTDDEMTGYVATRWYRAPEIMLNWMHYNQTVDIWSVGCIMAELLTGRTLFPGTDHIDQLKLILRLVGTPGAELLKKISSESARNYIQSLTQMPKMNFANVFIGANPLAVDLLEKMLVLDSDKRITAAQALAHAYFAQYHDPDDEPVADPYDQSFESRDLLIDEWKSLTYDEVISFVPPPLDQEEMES

p38-γ = target: T1, p38-γ (Homo sapiens, UniProt P53778); test: Kinase specificity, p38-γ; details: approximate IC50; tested at 50 μM, calculated using the formula in Example 22
T1 sequence (P53778 1-367): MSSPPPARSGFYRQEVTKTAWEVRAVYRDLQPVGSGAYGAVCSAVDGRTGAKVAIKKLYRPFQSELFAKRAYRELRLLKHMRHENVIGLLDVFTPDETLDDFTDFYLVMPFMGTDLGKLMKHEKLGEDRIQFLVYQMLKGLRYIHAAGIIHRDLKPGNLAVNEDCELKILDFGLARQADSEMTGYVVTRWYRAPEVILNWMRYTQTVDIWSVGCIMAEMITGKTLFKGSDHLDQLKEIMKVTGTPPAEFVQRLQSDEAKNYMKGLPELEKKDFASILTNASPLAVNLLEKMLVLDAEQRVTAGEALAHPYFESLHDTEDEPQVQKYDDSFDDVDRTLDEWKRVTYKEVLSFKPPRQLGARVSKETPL
Description: as §1, §2
(§3) The specificity of the compounds of the invention was also tested with respect to other kinases, including p38-γ, ERK-2, PKA, PKC, cdc-2, EGF-R, and DNA-PK as shown in Table 4. The compounds tested are the 4-benzylpiperidinyl indole-5- and 6-carboximides with the number indicating the ring position of the carboxamide.
(§4) The exception is for p38α values where the IC50 values were determined from concentration dependent curve fitting analysis.

ERK-2 = ERK-2 (Homo sapiens, UniProt P28482); test: Kinase specificity, ERK-2; details: approximate IC50; tested at 50 μM, calculated using the formula in Example 22
ERK-2, sequence (P28482 whole entry, species assumed): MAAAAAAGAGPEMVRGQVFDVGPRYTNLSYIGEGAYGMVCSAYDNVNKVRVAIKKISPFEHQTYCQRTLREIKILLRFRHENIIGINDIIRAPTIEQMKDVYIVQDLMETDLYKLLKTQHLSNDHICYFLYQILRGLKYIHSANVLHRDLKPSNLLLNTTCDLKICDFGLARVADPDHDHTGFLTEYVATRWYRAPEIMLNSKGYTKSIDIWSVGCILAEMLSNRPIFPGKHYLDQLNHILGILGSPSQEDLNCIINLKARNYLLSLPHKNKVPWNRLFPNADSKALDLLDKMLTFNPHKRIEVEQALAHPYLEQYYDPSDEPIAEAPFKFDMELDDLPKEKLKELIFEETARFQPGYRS
Description: as §1, §2, §3, §4

PKA = PKA (Homo sapiens, UniProt P17612); test: Kinase specificity, PKA; details: approximate IC50; tested at 50 μM, calculated using the formula in Example 22
Description: as §1, §2, §3, §4

PKC = test: Kinase specificity, PKC; details: approximate IC50; tested at 50 μM, calculated using the formula in Example 22
Description: as §1, §2, §3, §4

cdc2 = cdc2 (Homo sapiens, UniProt P06493); test: Kinase specificity, cdc2; details: approximate IC50; tested at 50 μM, calculated using the formula in Example 22
cdc2, sequence (P06493 whole entry, species assumed): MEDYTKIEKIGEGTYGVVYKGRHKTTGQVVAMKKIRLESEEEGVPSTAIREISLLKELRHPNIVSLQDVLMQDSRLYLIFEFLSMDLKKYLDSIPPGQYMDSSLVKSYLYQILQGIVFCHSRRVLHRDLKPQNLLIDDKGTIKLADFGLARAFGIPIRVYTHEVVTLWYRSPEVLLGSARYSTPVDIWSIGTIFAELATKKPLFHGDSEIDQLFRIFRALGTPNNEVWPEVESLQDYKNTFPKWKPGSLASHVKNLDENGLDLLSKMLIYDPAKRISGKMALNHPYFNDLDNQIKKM
cdc2, sequence (P14635 whole entry partner, species assumed): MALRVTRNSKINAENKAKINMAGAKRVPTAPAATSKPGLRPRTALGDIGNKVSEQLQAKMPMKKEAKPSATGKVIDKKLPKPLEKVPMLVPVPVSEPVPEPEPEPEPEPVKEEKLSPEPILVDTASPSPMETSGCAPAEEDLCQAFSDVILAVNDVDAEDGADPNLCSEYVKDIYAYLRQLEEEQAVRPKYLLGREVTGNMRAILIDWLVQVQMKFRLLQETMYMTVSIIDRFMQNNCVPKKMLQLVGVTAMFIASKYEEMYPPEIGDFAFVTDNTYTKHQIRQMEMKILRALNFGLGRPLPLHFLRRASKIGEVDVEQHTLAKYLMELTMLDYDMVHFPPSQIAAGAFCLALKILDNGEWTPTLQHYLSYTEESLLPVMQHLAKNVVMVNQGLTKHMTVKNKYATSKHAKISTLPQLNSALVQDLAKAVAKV
Description: as §1, §2, §3, §4

EGF-R = EGF-R (Homo sapiens, UniProt P00533); test: Kinase specificity, EGF-R; details: approximate IC50; tested at 50 μM, calculated using the formula in Example 22
EGF-R, sequence (P00533 25-1210, species assumed): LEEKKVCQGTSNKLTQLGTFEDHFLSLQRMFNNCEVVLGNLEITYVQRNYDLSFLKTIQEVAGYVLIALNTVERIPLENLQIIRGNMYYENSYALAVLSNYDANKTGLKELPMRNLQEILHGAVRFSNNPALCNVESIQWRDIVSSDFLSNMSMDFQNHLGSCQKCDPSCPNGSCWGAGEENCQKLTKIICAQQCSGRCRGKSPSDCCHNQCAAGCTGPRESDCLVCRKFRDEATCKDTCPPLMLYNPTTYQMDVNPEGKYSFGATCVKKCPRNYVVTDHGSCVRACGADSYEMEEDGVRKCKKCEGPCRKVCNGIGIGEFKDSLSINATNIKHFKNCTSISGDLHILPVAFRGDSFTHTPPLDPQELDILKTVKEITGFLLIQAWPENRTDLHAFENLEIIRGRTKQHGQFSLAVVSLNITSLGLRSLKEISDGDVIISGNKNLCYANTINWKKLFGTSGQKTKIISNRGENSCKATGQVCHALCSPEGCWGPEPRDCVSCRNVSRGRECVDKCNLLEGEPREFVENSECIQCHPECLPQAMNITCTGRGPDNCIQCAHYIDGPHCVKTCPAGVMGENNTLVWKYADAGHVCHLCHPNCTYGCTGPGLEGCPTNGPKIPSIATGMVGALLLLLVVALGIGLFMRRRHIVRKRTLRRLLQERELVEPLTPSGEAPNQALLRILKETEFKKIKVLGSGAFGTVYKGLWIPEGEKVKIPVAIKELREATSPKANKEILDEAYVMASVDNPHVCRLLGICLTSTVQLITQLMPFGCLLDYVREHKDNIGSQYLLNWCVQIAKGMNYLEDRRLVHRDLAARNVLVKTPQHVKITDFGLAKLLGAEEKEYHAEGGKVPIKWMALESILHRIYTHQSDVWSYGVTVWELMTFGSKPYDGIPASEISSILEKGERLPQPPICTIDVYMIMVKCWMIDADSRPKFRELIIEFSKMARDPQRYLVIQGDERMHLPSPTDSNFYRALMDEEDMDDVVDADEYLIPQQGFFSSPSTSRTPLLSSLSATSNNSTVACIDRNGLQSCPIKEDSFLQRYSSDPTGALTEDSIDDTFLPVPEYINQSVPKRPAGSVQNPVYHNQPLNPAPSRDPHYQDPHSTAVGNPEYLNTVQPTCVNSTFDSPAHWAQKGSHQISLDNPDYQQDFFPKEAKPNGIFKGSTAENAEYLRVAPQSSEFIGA
Description: as §1, §2, §3, §4

DNA-PK = DNA-PK (Homo sapiens, UniProt P78527); test: Kinase specificity, DNA-PK; details: approximate IC50; tested at 50 μM, calculated using the formula in Example 22
Description: as §1, §2, §3, §4

[1] = at 50 μM concentration of the compound, Table 3, read-out: percent inhibition of p38β activity
[2] = Table 5, read-out: IC50, inhibition of p38α
[3] = Table 1, by ring position of the piperidinyl or piperazinyl substituent on indole, read-out: IC50 for inhibition of p38α
[4] = at 50 μM concentration of the compound, Table 3

p38β, sequence (Q15759 whole entry): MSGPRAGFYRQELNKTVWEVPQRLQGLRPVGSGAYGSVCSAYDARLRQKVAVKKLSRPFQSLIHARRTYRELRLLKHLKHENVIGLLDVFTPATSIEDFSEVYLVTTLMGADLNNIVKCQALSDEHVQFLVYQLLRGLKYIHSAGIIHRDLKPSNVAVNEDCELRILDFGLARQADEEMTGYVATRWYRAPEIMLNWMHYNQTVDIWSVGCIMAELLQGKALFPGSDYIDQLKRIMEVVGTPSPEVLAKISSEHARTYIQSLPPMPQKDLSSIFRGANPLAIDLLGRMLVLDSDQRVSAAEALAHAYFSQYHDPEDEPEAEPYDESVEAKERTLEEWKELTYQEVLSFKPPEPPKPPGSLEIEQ

| inhibition at 50 µM (p38β; [1]) | IC50 (p38α; [2]) | Compound | also measured |
| --- | --- | --- | --- |
| 59% | – | O=C(c1ccc2[nH]ccc2c1)N1CCN(Cc2ccccc2)CC1 [Piperazinyl 5] | – |
| 7% | – | O=C(c1cccc2cc[nH]c12)N1CCN(Cc2ccccc2)CC1 [Piperazinyl 7] | – |
| – | 0.0646 µM | COc1cc2[nH]cc(C(=O)NCCN(C)C)c2cc1C(=O)N1CCC(Cc2ccccc2)CC1 [6-methoxy-3-(2-dimethylaminoethylamino)carboxamidyl-(4-benzylpiperidinyl)indole-5-carboxamide] | – |
| 12% | – | O=C(c1cc2ccccc2[nH]1)N1CCC(Cc2ccccc2)CC1 [Piperidinyl 2] | IC50 (p38α; [3]): 3.26 µM |
| 96% | – | O=C(c1c[nH]c2ccccc12)N1CCC(Cc2ccccc2)CC1 [Piperidinyl 3] | IC50 (p38α; [3]): 0.2 µM |
| 68% | – | O=C(c1cccc2[nH]ccc12)N1CCN(Cc2ccccc2)CC1 [Piperazinyl 4] | – |
| – | 0.405 µM | O=C(c1ccc2c(ccn2C(=O)c2ccncc2)c1)N1CCC(Cc2ccccc2)CC1 [drawing 83] | – |
| 96% | 0.523 µM and 0.577 µM | O=C(c1ccc2[nH]ccc2c1)N1CCC(Cc2ccccc2)CC1 [Piperidinyl 5, 4-Benzylpiperidinyl-indole-5-carboxamide] | IC50 (p38α; [3]): 0.242 µM |
| 27% | – | O=C(c1cc2ccccc2[nH]1)N1CCN(Cc2ccccc2)CC1 [Piperazinyl 2] | IC50 (p38α; [3]): > 30 µM |
| 56% | – | O=C(c1ccc2cc[nH]c2c1)N1CCN(Cc2ccccc2)CC1 [Piperazinyl 6] | IC50 (p38α; [3]): 4.97 µM |
| – | 0.871 µM | O=C(c1ccc2c(ccn2C(=O)c2ccncc2)c1)N1CCC(Cc2ccccc2)CC1 [drawing 82] | – |
| 45% | – | O=C(c1cccc2cc[nH]c12)N1CCC(Cc2ccccc2)CC1 [Piperidinyl 7] | IC50 (p38α; [3]): > 30 µM |
| 77% | – | O=C(c1c[nH]c2ccccc12)N1CCN(Cc2ccccc2)CC1 [Piperazinyl 3] | IC50 (p38α; [3]): 5.44 µM |
| 96% | – | O=C(c1cccc2[nH]ccc12)N1CCC(Cc2ccccc2)CC1 [Piperidinyl 4] | IC50 (p38α; [3]): 0.2 µM |

Further lines, the compound ahead of its results:

| Compound | inhibition at 50 µM (p38β; [1]) | IC50 (p38α; [2]) | also measured |
| --- | --- | --- | --- |
| O=C(c1ccc2[nH]cnc2c1)N1CCC(Cc2ccc(F)cc2)CC1 | – | 0.39 µM | – |
| CC(=O)N1CCC(Cc2ccc(F)cc2)C1 (stereo not shown) | – | – | inhibition at 1 µM (p38α; at 1 μM): 51% |
| CCN(CC)CCCn1ccc2cc(C(=O)N3CCC(Cc4ccccc4)CC3)c(Cl)cc21 [1-(Diethylamino)-n-propyl-6-chloro-(4-benzylpiperidinyl)-indole-5-carboxamide] | – | 0.199 µM | – |
| O=C(c1ccc2[nH]cnc2c1)N1CCC(Cc2ccccc2)CC1 [4-Benzyl-piperidinyl-benzimidazole-5-carboxamide] | – | 0.635 µM | inhibition at 50 µM (p38β; compounds tested at 50 μM, read-out: inhibition of p38β): 85% |
| O=C(c1ccc2cc[nH]c2c1)N1CCC(Cc2ccccc2)CC1 [Piperidinyl 6, 4-benzylpiperidinyl-indole-6-carboxamide] | – | – | percent inhibition of p38β activity (p38β; [4]): 92%; IC50 (p38-γ): > 300 µM; IC50 (ERK-2): > 300 µM; IC50 (PKA): > 500 µM; IC50 (PKC): > 500 µM; IC50 (cdc2): > 500 µM; IC50 (EGF-R): > 500 µM; IC50 (DNA-PK): 450 µM |
| CCN(CC)CCn1ccc2cc(C(=O)N3CCC(Cc4ccc(F)cc4)CC3)ccc21 [1-(Diethylamino)-ethyl-(4′-fluoro-4-benzylpiperidinyl)-indole-5-carboxamide] | – | 0.354 µM | – |
| O=C(c1ccc2[nH]cc(CN3CCOCC3)c2c1)N1CCC(Cc2ccccc2)CC1 | – | 6.57 µM | – |
| CCN(CC)CCCn1ccc2cc(C(=O)N3CCC(Cc4ccccc4)CC3)ccc21 [1-(Diethylamino)n-propyl-(4-benzylpiperidinyl)-indole-5-carboxamide] | – | 0.474 µM | – |
| NC(=O)c1ccc2nc(N3CCN(Cc4cccc(Cl)c4)CC3)[nH]c2c1 [4-(3-chlorobenzyl)-piperazinyl-benzimidazole-5-carboxamide] | – | – | inhibition of p38β (p38β; compounds tested at 50 μM): 66% |
| Cc1cc2c(Cl)c(C(=O)N3CCC(Cc4ccccc4)CC3)ccc2[nH]1 | – | 0.489 µM | inhibition at 0.2 µM (p38α; at 0.2 μM): 43% |
| O=C(c1ccc2c(C(=O)C(F)(F)F)c[nH]c2c1)N1CCC(Cc2ccccc2)CC1 [3-trifluoroacetyl-(4-benzylpiperidinyl)indole-6-carboxamide] | – | – | inhibition of p38α (p38α; at 1 μM): 41% |
| CCN(CC)CCn1ccc2cc(C(=O)N3CCC(Cc4ccccc4)CC3)c(OC)cc21 [1-(Diethylaminoethyl)-6-methoxy-(4-benzylpiperidinyl)-indole-5-carboxamide] | – | 0.184 µM | – |
| 4-(4-Chlorobenzyl)piperazinyl-indole-5-carboxamide [Piperazinyl 5 4-Cl] | – | – | percent inhibition of p38β activity (p38β; [4]): 77% |
| COc1cc2[nH]ccc2cc1C(=O)N1CCC(Cc2ccc(F)cc2)CC1 [6-methoxy-(4-(4fluorobenzyl)piperidinyl)indole-5-carboxamide] | – | 0.159 µM | – |

Source: patent US6589954B1, “Compounds and methods to treat cardiac failure and other disorders” (Scios, Inc., priority 1998, dated 2003)
